{"source": "paper PMC11283454", "about": "(Nature Communications, 2024)", "key": {"hATE1 [1]": {"biological_target": "T1, hATE1 (Homo sapiens, UniProt O95260)", "T1 sequence (O95260 1-518 isoform O95260-2)": "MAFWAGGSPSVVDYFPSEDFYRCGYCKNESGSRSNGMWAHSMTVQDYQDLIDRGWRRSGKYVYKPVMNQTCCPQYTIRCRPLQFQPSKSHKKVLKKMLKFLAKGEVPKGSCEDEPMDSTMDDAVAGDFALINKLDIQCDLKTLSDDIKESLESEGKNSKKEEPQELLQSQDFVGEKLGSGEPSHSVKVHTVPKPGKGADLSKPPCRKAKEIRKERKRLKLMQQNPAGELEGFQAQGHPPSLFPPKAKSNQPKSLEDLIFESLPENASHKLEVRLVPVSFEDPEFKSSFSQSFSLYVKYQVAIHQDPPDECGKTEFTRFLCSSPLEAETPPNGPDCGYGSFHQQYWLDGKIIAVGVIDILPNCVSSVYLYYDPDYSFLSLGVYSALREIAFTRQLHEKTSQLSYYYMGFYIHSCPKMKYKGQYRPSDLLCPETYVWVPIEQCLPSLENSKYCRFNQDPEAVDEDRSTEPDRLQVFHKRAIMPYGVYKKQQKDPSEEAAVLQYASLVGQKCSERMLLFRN", "test": "Differential scanning fluorimetry of hATE1 with or without ligands", "conditions": "DSF; for change of melting temperature of hATE1 in the presence of ligand: absence of tRNA, result in words"}, "RGS4 [2]": {"test_system": "RGS4", "test": "Immunoblotting, proteasomal flux", "conditions": "MG132 10 μM, 6 h"}, "hATE1 [3]": {"biological_target": "T1, hATE1", "test": "MST direct binding assay, hATE1-peptide interaction", "conditions": "with vs without A + T arms"}, "human ATE1": {"test_system": "human ATE1", "test": "Intact protein analysis of purified ATE1", "conditions": "purified recombinant ATE1, GST-tag removed, LC-MS"}, "RGS4 [4]": {"test_system": "RGS4", "test": "Immunocytochemistry, RGS4 level in ATE1 deficient HeLa cells", "conditions": "ATE1-KO HeLa cells"}}, "note": "Peptide text beside a SMILES is read from it. * marks the point of attachment. Cbz = O=C(OCc1ccccc1)*"}
{"compound": "O=C(O)CN(CCN(CC(=O)O)CC(=O)O)CC(=O)O", "note": "[EDTA]", "values": [{"measurement": "thermal stability decrease of ATE1 on EDTA treatment", "setting": "hATE1 [1]; increasing amount of EDTA, duplicate measurements", "value": "~ 7 °C"}]}
{"compound": "CC(C)C[C@@H](C=O)NC(=O)[C@H](CC(C)C)NC(=O)[C@H](CC(C)C)NC(=O)OCc1ccccc1", "note": "[MG132] (Cbz-Leu-Leu-Leu-aldehyde)", "values": [{"measurement": "RGS4 accumulation post-MG132", "setting": "RGS4 [2]; ATE1-KO HeLa cells", "value": "no RGS4 accumulation"}, {"measurement": "normalized P.F. index (fold change), RGS4 accumulation", "setting": "RGS4 [2]; WT ATE1 HeLa cells", "value": "~ 29 fold change"}]}
{"compound": "N=C(N)NCCC[C@H](N)C(=O)O", "note": "[free arginine, arginine]", "values": [{"measurement": "change of melting temperature of hATE1 in the presence of ligand", "setting": "hATE1 [1]", "value": "no change was observed"}]}
{"compound": "NC(=O)CC[C@H](N)C(N)=O", "note": "[glutamine amide]", "values": [{"measurement": "change of melting temperature of hATE1 in the presence of ligand", "setting": "hATE1 [1]", "value": "no change was observed"}]}
{"compound": "RDDIAA-FAM", "values": [{"measurement": "fold enhancement of binding affinity by tRNA-mimetic (A + T arms)", "setting": "hATE1 [3]", "value": "15 -fold"}]}
{"compound": "WT hATE1: human arginyl-tRNA-protein transferase 1 isoform 2, wild type, recombinant", "values": [{"measurement": "small arginylated fraction of ATE1", "setting": "human ATE1", "value": "< 3 % of total"}, {"measurement": "RGS4 level by immunostaining", "setting": "RGS4 [4]", "value": "but not in those transfected with WT ATE1"}, {"measurement": "RGS4 proteasomal flux / RGS4 stabilization", "setting": "RGS4 [2]; ATE1-KO HeLa cells expressing the ATE1 construct", "value": "restored the P.F. index"}]}
